According to PubChem BioAssay (NCI):
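Briefly, cells in 96-well plates were exposed to five compound concentrations for 48 h, and endpoints were estimated by linear interpolation. The concentration for 50% growth inhibition is given as GI50. TGI is the concentration that stops growth completely.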

How the values were obtained:
Assay in all cases: NCI anticancer screen, dose series, 48 h
[1] = test system: CCRF-CEM leukemia
[2] = test system: NCI-H23 lung
[3] = test system: A498 renal
[4] = test system: EKVX NSCLC
[5] = test system: HCC-2998 colon
[6] = test system: HL-60(TB) leukemia
[7] = test system: MALME-3M melanoma
[8] = test system: SNB-75 CNS
[9] = test system: MDA-MB-435
[10] = test system: RXF 393 renal
[11] = test system: K-562 leukemia
[12] = test system: OVCAR-8 ovarian
[13] = test system: NCI/ADR-RES ovarian
[14] = test system: HCT-116 colon
[15] = test system: UACC-62 melanoma
[16] = test system: SK-MEL-28 melanoma
[17] = test system: HOP-62 NSCLC
[18] = test system: MDA-MB-231 breast
[19] = test system: KM12 colon
[20] = test system: A549 NSCLC
[21] = test system: CAKI-1 renal
[22] = test system: ACHN renal
[23] = test system: IGROV1 ovarian
[24] = test system: MCF7 breast
[25] = test system: OVCAR-5 ovarian
[26] = test system: RPMI-8226 leukemia
[27] = test system: LOX IMVI melanoma
[28] = test system: NCI-H226 lung
[29] = test system: SK-MEL-5 melanoma
[30] = test system: MOLT-4 leukemia
[31] = test system: COLO 205 colon
[32] = test system: SF-268 CNS
[33] = test system: SF-539 CNS
[34] = test system: 786-0 renal
[35] = test system: SR leukemia
[36] = test system: HT29 colon
[37] = test system: U251 CNS
[38] = test system: OVCAR-4 ovarian
[39] = test system: SN12C renal
[40] = test system: SF-295 CNS
[41] = test system: DU-145 prostate
[42] = test system: SK-MEL-2 melanoma
[43] = test system: BT-549 breast
[44] = test system: SK-OV-3 ovarian
[45] = test system: HS 578T breast
[46] = test system: NCI-H522 lung
[47] = test system: UACC-257 melanoma
[48] = test system: TK-10 renal
[49] = test system: HCT-15 colon
[50] = test system: SW-620 colon
[51] = test system: SNB-19 CNS
[52] = test system: M14 melanoma
[53] = test system: PC-3 prostate
[54] = test system: UO-31 renal
[55] = test system: NCI-H460 lung
[56] = test system: T-47D breast

Compound `Oc1ccc(CSc2nnc(-c3cnccn3)n2-c2ccccc2)c2cccnc12` has a GI50 [1] of 0.563 µM, a TGI [1] of over 100 µM and a GI50 [2] of 0.496 µM. It also gave a TGI [2] of over 61 µM, a GI50 [3] of 2.6 µM and a TGI [3] of 10.1 µM. The GI50 [4] was 1.87 µM, the TGI [4] was over 100 µM and the GI50 [5] was 2.9 µM. For the same compound, the TGI [5] was over 100 µM, the GI50 [6] was 0.594 µM and the TGI [6] was 5.09 µM. The GI50 [7] was 2.02 µM, the TGI [7] was over 100 µM and the GI50 [8] was 0.707 µM. The TGI [8] was over 62.3 µM, the GI50 [9] was 0.571 µM and the TGI [9] was over 100 µM. The GI50 [10] was 2.59 µM, the TGI [10] was over 58.2 µM and the GI50 [11] was 0.468 µM. For the same compound, the TGI [11] was over 100 µM, the GI50 [12] was 0.519 µM and the TGI [12] was over 100 µM. The GI50 [13] was 0.309 µM, the TGI [13] was over 34.8 µM and the GI50 [14] was 0.37 µM. For the same compound, the TGI [14] was over 100 µM, the GI50 [15] was 1.18 µM and the TGI [15] was 6.73 µM. It also gave a GI50 [16] of 2.07 µM, a TGI [16] of over 100 µM and a GI50 [17] of 0.729 µM. It also gave a TGI [17] of 50.8 µM, a GI50 [18] of 1.28 µM and a TGI [18] of over 86.5 µM. It also gave a GI50 [19] of 1.45 µM, a TGI [19] of over 100 µM and a GI50 [20] of 1.18 µM. The TGI [20] was over 100 µM, the GI50 [21] was 1.98 µM and the TGI [21] was over 92.3 µM. The GI50 [22] was 0.641 µM, the TGI [22] was over 40.9 µM and the GI50 [23] was 0.923 µM. The TGI [23] was over 100 µM, the GI50 [24] was 0.334 µM and the TGI [24] was over 100 µM. It also gave a GI50 [25] of 3.83 µM, a TGI [25] of over 100 µM and a GI50 [26] of 0.46 µM. The TGI [26] was over 100 µM, the GI50 [27] was 0.559 µM and the TGI [27] was 13.4 µM. The GI50 [28] was 3.78 µM, the TGI [28] was over 100 µM and the GI50 [29] was 0.638 µM. The GI50 [30] was 0.707 µM, the TGI [30] was over 100 µM and the GI50 [31] was 11.7 µM. The TGI [31] was over 100 µM, the GI50 [32] was 0.782 µM and the TGI [32] was over 100 µM. It also gave a GI50 [33] of 0.919 µM, a TGI [33] of over 37.1 µM and a GI50 [34] of 3.7 µM. For the same compound, the TGI [34] was 34 µM, the GI50 [35] was 0.409 µM and the TGI [35] was over 100 µM. The GI50 [36] was 3.99 µM, the TGI [36] was over 100 µM and the GI50 [37] was 0.47 µM. The TGI [37] was over 100 µM, the GI50 [38] was 3.65 µM and the TGI [38] was over 100 µM. It also gave a GI50 [39] of 0.392 µM, a TGI [39] of over 100 µM and a GI50 [40] of 1 µM. For the same compound, the TGI [40] was over 59.6 µM, the GI50 [41] was 0.669 µM and the TGI [41] was over 100 µM. The GI50 [42] was 0.566 µM, the GI50 [43] was 0.736 µM and the TGI [43] was over 49.6 µM. It also gave a GI50 [44] of 1.28 µM, a TGI [44] of 18.2 µM and a GI50 [45] of 0.522 µM. It also gave a TGI [45] of over 100 µM, a GI50 [46] of 0.353 µM and a TGI [46] of over 100 µM. It also gave a GI50 [47] of 2.16 µM, a TGI [47] of over 28.7 µM and a GI50 [48] of 3.23 µM. The TGI [48] was over 100 µM, the GI50 [49] was 0.408 µM and the TGI [49] was over 100 µM. For the same compound, the GI50 [50] was 0.624 µM, the TGI [50] was over 100 µM and the GI50 [51] was 0.522 µM. The TGI [51] was over 100 µM, the GI50 [52] was 0.815 µM and the GI50 [53] was 0.586 µM. The TGI [53] was over 100 µM, the GI50 [54] was 0.458 µM and the TGI [54] was 15.3 µM. The GI50 [55] was 0.412 µM, the TGI [55] was 16.4 µM and the GI50 [56] was 1.13 µM. It also gave a TGI [56] of over 100 µM.
